Measurements from patent publication US20250230155A1 (Vanderbilt University, priority 2021, published 2025).

Target: T1, human mAChR M4 (Homo sapiens, UniProt P08173)
T1 construct: expressed in transfected cells
T1 sequence (P08173 1-479): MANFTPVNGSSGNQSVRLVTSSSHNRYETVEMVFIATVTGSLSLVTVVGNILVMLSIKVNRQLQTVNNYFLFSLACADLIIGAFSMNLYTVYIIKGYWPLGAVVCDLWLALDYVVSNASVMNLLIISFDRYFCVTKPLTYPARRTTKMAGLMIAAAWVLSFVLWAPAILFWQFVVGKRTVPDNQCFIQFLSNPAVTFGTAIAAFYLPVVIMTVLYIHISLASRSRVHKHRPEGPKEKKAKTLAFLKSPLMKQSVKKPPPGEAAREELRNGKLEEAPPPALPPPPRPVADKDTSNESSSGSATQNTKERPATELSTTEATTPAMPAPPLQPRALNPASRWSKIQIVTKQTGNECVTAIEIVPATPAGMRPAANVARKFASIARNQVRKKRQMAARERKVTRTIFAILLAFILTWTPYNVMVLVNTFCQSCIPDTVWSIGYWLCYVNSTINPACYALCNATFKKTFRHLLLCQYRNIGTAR
Assay: mAChR M4 cell-based functional assay (calcium mobilization, CHO-K1 hM4-Gqi5 cells)
Conditions: for Emax at 30 µM: CHO-K1, % ACh maximum at 30 μM, human M4; for EC50: positive allosteric modulator activity, increase in the EC20 acetylcholine response, CHO-K1 hM4-Gqi5 cells, read-out: Human M4 EC50
How it was run: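 CHO-K1 cells stably expressing human M4 with chimeric Gqi5, loaded with Fluo-4 AM; compounds given as 11-point 1:3 curves and calcium flux read on FDSS at 1 Hz. Acetylcholine EC20 added at 144 s, EC80 at 230 s; agonist, PAM (EC20 potentiation) and antagonist (EC80 inhibition) EC50/Emax from four-parameter fits.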

## Cc1nn(C)cc1-c1cnc2c(c1)CN(c1nc(NCC(C)(C)O)nc(C)c1C)CC2 [compound 274, 1-((4-(3-(1,3-dimethyl-1H-pyrazol-4-yl)-7,8-dihydro-1,6-naphthyridin-6(5H)-yl)-5,6-dimethylpyrimidin-2-yl)amino)-2-methylpropan-2-ol]
  Emax at 30 µM: 87%
  EC50: 735 nM

## Cc1cc(C#N)nnc1N1CCc2ncc(Oc3cccc(F)c3F)cc2C1 [Example 356, 6-(3-(2,3-difluorophenoxy)-7,8-dihydro-1,6-naphthyridin-6(5H)-yl)-5-methylpyridazine-3-carbonitrile]
  Emax at 30 µM: 83%
  EC50: 276 nM

## Cc1cnccc1CNC(=O)c1cnc(N2CCc3ncc(C(F)(F)F)cc3C2)c(C)c1 [Example 445, 5-methyl-N-((3-methylpyridin-4-yl)methyl)-6-(3-(trifluoromethyl)-7,8-dihydro-1,6-naphthyridin-6(5H)-yl)nicotinamide]
  Emax at 30 µM: 100%
  EC50: 170 nM

## Cc1cc(C(=O)N2CC(C)(O)C2)nnc1N1CCc2ncc(N3CCO[C@H](C)C3)cc2C1 [Example 540, (R)-(3-hydroxy-3-methylazetidin-1-yl)(5-methyl-6-(3-(2-methylmorpholino)-7,8-dihydro-1,6-naphthyridin-6(5H)-yl)pyridazin-3-yl)methanone]
  Emax at 30 µM: 100%
  EC50: 268 nM

## Cc1cc(C(=O)N2CC(CO)C2)nnc1N1CCc2ncc(N3CCCn4nccc43)cc2C1 [Example 554, (6-(3-(6,7-dihydropyrazolo[1,5-a]pyrimidin-4(5H)-yl)-7,8-dihydro-1,6-naphthyridin-6(5H)-yl)-5-methylpyridazin-3-yl)(3-(hydroxymethyl)azetidin-1-yl)methanone]
  Emax at 30 µM: 78%
  EC50: 16 nM

## Cc1c(C(=O)NCc2csc3ccccc23)nnc(N2CCc3ncc(C(F)(F)F)cc3C2)c1C [Example 463, N-(benzo[b]thiophen-3-ylmethyl)-4,5-dimethyl-6-(3-(trifluoromethyl)-7,8-dihydro-1,6-naphthyridin-6(5H)-yl)pyridazine-3-carboxamide]
  Emax at 30 µM: 101%
  EC50: 422 nM

## Cc1cc(C#N)cnc1N1CCc2ncc(N3CC(C)Cn4nccc43)cc2C1 (stereo not shown) [Example 384, 5-methyl-6-(3-(6-methyl-6,7-dihydropyrazolo[1,5-a]pyrimidin-4(5H)-yl)-7,8-dihydro-1,6-naphthyridin-6(5H)-yl)nicotinonitrile]
  Emax at 30 µM: 100%
  EC50: 185 nM

## Cc1cc(C(=O)NCc2csc3ccccc23)cnc1N1CCc2ncccc2C1 [compound 128, N-(benzothiophen-3-ylmethyl)-6-(7,8-dihydro-5H-1,6-naphthyridin-6-yl)-5-methyl-pyridine-3-carboxamide]
  Emax at 30 µM: 74%
  EC50: 1150 nM

## Cc1c(C#N)nnc(N2CCc3ncc(Nc4ccc(Cl)cc4F)cc3C2)c1C [compound 46, 6-[3-(4-chloro-2-fluoro-anilino)-7,8-dihydro-5H-1,6-naphthyridin-6-yl]-4,5-dimethyl-pyridazine-3-carbonitrile]
  Emax at 30 µM: 34%
  EC50: 970 nM

## Cc1nc(C)c(C)c(N2CCc3ncc(-c4cn(C)nc4C)cc3C2)n1 [compound 201, 3-(1,3-dimethylpyrazol-4-yl)-6-(2,5,6-trimethylpyrimidin-4-yl)-7,8-dihydro-5H-1,6-naphthyridine]
  Emax at 30 µM: 77%
  EC50: 176 nM

## Cc1cc(-c2cnc3c(c2)CN(c2nnc(C(=O)NCc4ccncc4)c(C)c2C)CC3)ccn1 [compound 189, 4,5-dimethyl-6-[3-(2-methyl-4-pyridyl)-7,8-dihydro-5H-1,6-naphthyridin-6-yl]-N-(4-pyridylmethyl)pyridazine-3-carboxamide]
  Emax at 30 µM: 93%
  EC50: 199 nM

## Cc1nc(C)c(C)c(N2CCc3ncc(-c4ccc(N5CCN(C)CC5)nc4)cc3C2)n1 [compound 233, 3-(6-(4-methylpiperazin-1-yl)pyridin-3-yl)-6-(2,5,6-trimethylpyrimidin-4-yl)-5,6,7,8-tetrahydro-1,6-naphthyridine]
  Emax at 30 µM: 80%
  EC50: 366 nM

## Cc1c(C(=O)NCc2cncs2)nnc(N2CCc3ncccc3C2)c1C [compound 138, 6-(7,8-dihydro-5H-1,6-naphthyridin-6-yl)-4,5-dimethyl-N-(thiazol-5-ylmethyl)pyridazine-3-carboxamide]
  Emax at 30 µM: 96%
  EC50: 1110 nM

## Cc1ncc(-c2cnc3c(c2)CN(c2nnc(C#N)cc2C)CC3)s1 [Example 390, 5-methyl-6-(3-(2-methylthiazol-5-yl)-7,8-dihydro-1,6-naphthyridin-6(5H)-yl)pyridazine-3-carbonitrile]
  Emax at 30 µM: 78%
  EC50: 433 nM

## Cc1nc(NCC(C)(C)O)nc(N2CCc3ncc(Nc4ccnn4C)cc3C2)c1C [compound 280, 1-((4,5-dimethyl-6-(3-((1-methyl-1H-pyrazol-5-yl)amino)-7,8-dihydro-1,6-naphthyridin-6(5/I)-yl)pyrimidin-2-yl)amino)-2-methylpropan-2-ol]
  Emax at 30 µM: 105%
  EC50: 261 nM

## Cc1c(C#N)nnc(N2CCc3ncc(-c4ccc(N5CC6CC5CO6)nc4)cc3C2)c1C (stereo not shown) [Example 333, 6-(3-(6-(2-oxa-5-azabicyclo[2.2.1]heptan-5-yl)pyridin-3-yl)-7,8-dihydro-1,6-naphthyridin-6(5H)-yl)-4,5-dimethylpyridazine-3-carbonitrile]
  Emax at 30 µM: 72%
  EC50: 817 nM

## COc1ccc(-c2cnc3c(c2)CN(c2nc(C)nc(C)c2C)CC3)cn1 [compound 230, 3-(6-methoxypyridin-3-yl)-6-(2,5,6-trimethylpyrimidin-4-yl)-5,6,7,8-tetrahydro-1,6-naphthyridine]
  Emax at 30 µM: 65%
  EC50: 279 nM

## Cc1cnccc1-c1cnc2c(c1)CN(c1nnc(C#N)c(C)c1C)CC2 [compound 77, 4,5-dimethyl-6-[3-(3-methyl-4-pyridyl)-7,8-dihydro-5H-1,6-naphthyridin-6-yl]pyridazine-3-carbonitrile]
  Emax at 30 µM: 89%
  EC50: 198 nM

## Cc1nn(C)cc1-c1cnc2c(c1)CN(c1nc(N3CCN(C)CC3)nc(C)c1C)CC2 [compound 275, 3-(1,3-dimethyl-1/-pyrazol-4-yl)-6-(5,6-dimethyl-2-(4-methylpiperazin-1-yl)pyrimidin-4-yl)-5,6,7,8-tetrahydro-1,6-naphthyridine]
  Emax at 30 µM: 86%
  EC50: 981 nM

## [2H]C1([2H])Cc2ncc(Nc3cc(C)ncc3F)cc2C([2H])([2H])N1c1nnc(C#N)cc1C [Example 603, 6-(3-((5-fluoro-2-methylpyridin-4-yl)amino)-7,8-dihydro-1,6-naphthyridin-6(5H)-yl-5,5,7,7-d4)-5-methylpyridazine-3-carbonitrile]
  Emax at 30 µM: 97%
  EC50: 28 nM

## Cc1cc(C(=O)N2CCOCC2)nnc1N1CCc2ncc(N3CCCn4nccc43)cc2C1 [Example 515, (6-(3-(6,7-dihydropyrazolo[1,5-a]pyrimidin-4(5H)-yl)-7,8-dihydro-1,6-naphthyridin-6(5H)-yl)-5-methylpyridazin-3-yl)(morpholino)methanone]
  Emax at 30 µM: 107%
  EC50: 197 nM

## Cc1nc(Cl)c(C)c(N2CCc3ncc(C(F)(F)F)cc3C2)n1 [compound 200, 6-(6-chloro-2,5-dimethyl-pyrimidin-4-yl)-3-(trifluoromethyl)-7,8-dihydro-5H-1,6-naphthyridine]
  Emax at 30 µM: 96%
  EC50: 128 nM

## Cc1c(C#N)nnc(N2CCc3ncc(Nc4c(F)cccc4Cl)cc3C2)c1C [Example 33]
  Emax at 30 µM: 66%
  EC50: 197 nM

## Cc1cc(C#N)cnc1N1CCc2ncc(-c3cnn(CC(F)(F)F)c3)cc2C1 [compound 100, 5-methyl-6-[3-[1-(2,2,2-trifluoroethyl)pyrazol-4-yl]-7,8-dihydro-5H-1,6-naphthyridin-6-yl]pyridine-3-carbonitrile]
  Emax at 30 µM: 80%
  EC50: 188 nM

## Cc1cc(C(=O)NCc2ccccn2)cnc1N1CCc2ncccc2C1 [compound 59, 6-(7,8-dihydro-5H-1,6-naphthyridin-6-yl)-5-methyl-N-(2-pyridylmethyl)pyridine-3-carboxamide]
  Emax at 30 µM: 68%
  EC50: 6910 nM

## [2H]C1([2H])Cc2ncc(Nc3ccccc3F)cc2C([2H])([2H])N1c1nnc(C#N)cc1C [Example 611, 6-(3-((2-fluorophenyl)amino)-7,8-dihydro-1,6-naphthyridin-6(5H)-yl-5,5,7,7-d4)-5-methylpyridazine-3-carbonitrile]
  Emax at 30 µM: 86%
  EC50: 8 nM

## Cc1cc(C#N)cnc1N1CCc2ncc(-c3cc(F)ncc3F)cc2C1 [Example 337, 6-(3-(2,5-difluoropyridin-4-yl)-7,8-dihydro-1,6-naphthyridin-6(5H)-yl)-5-methylnicotinonitrile]
  Emax at 30 µM: 71%
  EC50: 270 nM

## Cc1cc(C#N)cnc1N1CCc2ncc(OCCCOc3ccccc3)cc2C1 [Example 432, 5-methyl-6-(3-(3-phenoxypropoxy)-7,8-dihydro-1,6-naphthyridin-6(5H)-yl)nicotinonitrile]
  Emax at 30 µM: 48%
  EC50: 6800 nM

## Cc1nc(Cl)c(C)c(N2CCc3ncc(-c4cnc(C)s4)cc3C2)n1 [compound 199, 5-[6-(6-chloro-2,5-dimethyl-pyrimidin-4-yl)-7,8-dihydro-5H-1,6-naphthyridin-3-yl]-2-methyl-thiazole]
  Emax at 30 µM: 81%
  EC50: 140 nM
